Values quoted from earlier work as cited in patent US20230228766A1, “SERUM BIOMARKERS FOR PREDICTING AND PREVENTING HEMORRHAGIC STROKE” (Texas Tech University System, priority 2020, published 2023).

Conditions: free PRG in blood

**Q.** Which “half-life of free, active form in blood” value does the source give for CC(=O)[C@H]1CC[C@H]2[C@@H]3CCC4=CC(=O)CC[C@]4(C)[C@H]3CC[C@]12C [PRG, progesterone] here?
**A.** The value was 5 to 10 min.
